The source of these data is patent US8394789B2, “(Dihydro)pyrrolo[2,1-α]isoquinolines” (MSD Oss B.V., priority 2008, dated 2013).

This experiment concerns the target T1, human FSH receptor (Homo sapiens, UniProt P23945).
T1 construct: expressed in transfected cells
T1 sequence (P23945 18-695): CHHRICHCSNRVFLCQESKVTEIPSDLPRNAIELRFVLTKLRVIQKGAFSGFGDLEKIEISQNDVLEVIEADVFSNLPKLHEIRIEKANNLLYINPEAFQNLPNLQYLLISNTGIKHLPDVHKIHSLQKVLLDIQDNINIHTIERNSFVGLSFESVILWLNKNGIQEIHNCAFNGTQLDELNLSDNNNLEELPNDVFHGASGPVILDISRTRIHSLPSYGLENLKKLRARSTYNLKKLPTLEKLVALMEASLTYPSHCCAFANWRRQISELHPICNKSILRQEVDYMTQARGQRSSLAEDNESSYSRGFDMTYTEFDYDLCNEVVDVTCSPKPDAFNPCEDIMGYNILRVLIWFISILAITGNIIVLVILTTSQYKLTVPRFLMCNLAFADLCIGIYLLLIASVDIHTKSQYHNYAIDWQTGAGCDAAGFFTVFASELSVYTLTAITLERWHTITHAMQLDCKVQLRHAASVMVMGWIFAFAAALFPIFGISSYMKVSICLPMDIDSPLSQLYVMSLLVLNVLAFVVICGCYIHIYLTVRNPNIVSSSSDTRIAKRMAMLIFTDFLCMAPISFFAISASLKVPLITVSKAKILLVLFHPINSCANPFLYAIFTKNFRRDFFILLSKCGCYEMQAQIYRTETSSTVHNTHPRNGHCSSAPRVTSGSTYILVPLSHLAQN
The experiment in a line: hFSHRago (CHO luc): agonistic activity at the human FSH receptor expressed in CHO cells, CRE-luciferase reporter. It counts as cell-based. Particulars: CHO cells stably transfected with human FSH receptor and CRE/luciferase reporter; 4 hours of incubation. For orientation: In a reporter assay the amount or activity of a reporter protein is the signal.
Text: The term EC50 means the concentration of the test compound that elicits half-maximal (50%) stimulation compared to the compound's maximally attainable effect. The values can be determined e.g. in a cell line transfected with a FSH receptor gene and cotransfected with a cAMP responsive element/promoter directing the expression of a reporter gene. Values can be determined using the software program such as MathIQ (version 2.0, ID Business Solutions Limited).
Agonistic activity of the compounds at the human FSH receptor was determined in Chinese Hamster Ovary (CHO) cells stably transfected with the human FSH receptor and cotransfected with a cAMP responsive element (CRE)/promoter directing the expression of a firefly luciferase reporter gene. […] Cells (7,500 cells/well of a 384 well plate) were incubated in Dulbecco' minimal essential F12 modified medium (Invitrogen), supplemented with 1 μg/ml bovine insulin, 5 μg/ml human apo-transferrin, 80 U/ml penicillin G and 80 μg/ml streptomycin with the test compounds (concentration between 0.0316 nM and 10.0 μM) in duplicate in a humidified atmosphere (95%) at 5-7% CO2 and 37° C. The final concentration of DMSO was 1%. After 4 hours of incubation, plates were allowed to adjust to room temperature for 1 hour. Then, Luclite (PerkinElmer) solution was added to the wells and cells were allowed to lyse for at least 1 hour at room temperature. Subsequently, luciferase activity was measured in a luminescence counter. The signal is expressed as counts per second (cps). The EC50 (concentration of the test compound that elicits half-maximal (50%) luciferase stimulation compared to the compound's maximally attainable effect) and efficacy values (maximal effect of the test compound as percentage of the maximal effect of recombinant human FSH) of the compounds were determined using the software program MathIQ (version 2.0, ID Business Solutions Limited).
For `COc1cc2c(cc1OC1CCCCO1)-c1c(-c3cccs3)cc(C(=O)N(C)C(C)(C)C)n1CC2` (stereo not drawn) [Example 69, 8-Methoxy-9-(tetrahydro-pyran-2-yloxy)-1-thiophen-2-yl-5,6-dihydro-pyrrolo[2,1-α]isoquinoline-3-carboxylic acid tert-butyl-methyl-amide], the concentration giving a half-maximal response (EC50) – broadly, the concentration giving half of the maximal effect – amounted to 6.9 nM. This counts as single-digit nanomolar.
The compound `COc1cc2c(cc1C(=O)N1CCOCC1)-c1c(-c3cccs3)cc(C(=O)N(C)C(C)(C)C)n1CC2` [Example 86] gave an EC50 of 69.4 nM.
Compound `COc1cc2c(cc1OCCS(C)(=O)=O)-c1c(-c3cccs3)cc(C(=O)N(C)C(C)(C)C)n1CC2` [Example 72, 9-(2-Methanesulfonyl-ethoxy)-8-methoxy-1-thiophen-2-yl-5,6-dihydro-pyrrolo[2,1-α]isoquinoline-3-carboxylic acid tert-butyl-methyl-amide] displayed a concentration giving a half-maximal response (EC50) of 16.9 nM.
The figure for `COc1cc2c(cc1CC(C)C)-c1c(-c3cccs3)cc(C(=O)N(C)C(C)(C)CO)n1CC2` [Example 81, 9-Isobutyl-8-methoxy-1-thiophen-2-yl-5,6-dihydro-pyrrolo[2,1-α]isoquinoline-3-carboxylic acid (2-hydroxy-1,1-dimethyl-ethyl)-methyl-amide] is 6 nM.
With `COc1cc2c(cc1C=C(F)F)-c1c(-c3cccs3)cc(C(=O)N(C)C(C)(C)C)n1CC2` [Example 93] the figure was 3 nM; with `COc1cc2c(cc1OC(C)C)-c1c(-c3cccs3)cc(C(=O)C3CCCC3)n1CC2` [Example 46, Cyclopentyl-(9-isopropoxy-8-methoxy-1-thiophen-2-yl-5,6,6a,10a-tetrahydro-pyrrolo[2,1-α]isoquinolin-3-yl)-methanone], 78.2 nM; with `C#Cc1cc(C(=O)N2CCCN(C(=O)c3ccccc3)CC2)n2c1-c1cc(OC)c(OC)cc1CC2` [Example 109, (4-Benzoyl-[1,4]diazepan-1-yl)-(1-ethynyl-8,9-dimethoxy-5,6-dihydro-pyrrolo[2,1-α]isoquinolin-3-yl)-methanone], 76.2 nM.
With `COc1cc2c(cc1OC(C)C)-c1c(-c3cccs3)c(C=NO)c(C(=O)N(C)C(C)(C)C)n1CC2` [Example 42, 2-(Hydroxyimino-methyl)-9-isopropoxy-8-methoxy-1-thiophen-2-yl-5,6-dihydro-pyrrolo[2,1-α]isoquinoline-3-carboxylic acid tert-butyl-methyl-amide] the figure was 1.2 nM; with `COc1cc2c(cc1C=C(C)C)-c1c(-c3nccs3)cc(C(=O)N(C)C(C)(C)C)n1CC2` [Example 59, 8-Methoxy-9-(2-methyl-propenyl)-1-thiazol-2-yl-5,6-dihydro-pyrrolo[2,1-α]isoquinoline-3-carboxylic acid tert-butyl-methyl-amide], 2.6 nM.
Turning to `COCc1c(-c2cccs2)c2n(c1C(=O)N(C)C(C)(C)C)CCc1cc(OC)c(OC(C)C)cc1-2` [Example 41, 9-Isopropoxy-8-methoxy-2-methoxymethyl-1-thiophen-2-yl-5,6-dihydro-pyrrolo[2,1-α]isoquinoline-3-carboxylic acid tert-butyl-methyl-amide], the EC50 was found to be 2.8 nM.
`COc1cc2c(cc1OC(C)C)-c1c(-c3cccs3)cc(C(=O)N(C)[C@@H]3CCCN(C(C)=O)C3)n1CC2` [Example 34d, 9-Isopropoxy-8-methoxy-1-thiophen-2-yl-5,6-dihydro-pyrrolo[2,1-α]isoquinoline-3-carboxylic acid ((R)-1-acetyl-piperidin-3-yl)-methyl-amide] returned an EC50 of 496 nM.
Turning to `COc1cc2c(cc1NC(=O)CN1CCOCC1)-c1c(-c3cccs3)cc(C(=O)N3CCCC3(C)C)n1CC2` [Example 101, N-[3-(2,2-Dimethyl-pyrrolidine-1-carbonyl)-8-methoxy-1-thiophen-2-yl-5,6-dihydro-pyrrolo[2,1-α]isoquinolin-9-yl]-2-morpholin-4-yl-acetamide], the 50% effective concentration (EC50) was 2 nM.
The compound `COc1cc2c(cc1OC(C)C)-c1c(-c3nnn[nH]3)cc(C(=O)N(C)C(C)(C)C)n1CC2` [Example 38, 9-Isopropoxy-8-methoxy-1-(1H-tetrazol-5-yl)-5,6-dihydro-pyrrolo[2,1-α]isoquinoline-3-carboxylic acid tert-butyl-methyl-amide] gave an EC50 of 1640 nM.
The figure for `CCC1CCCN1C(=O)c1cc(-c2cccs2)c2n1CCc1cc(OC)c(OC(C)C)cc1-2` (stereo not drawn) [Example 27, (2-Ethyl-pyrrolidin-1-yl)-(9-isopropoxy-8-methoxy-1-thiophen-2-yl-5,6-dihydro-pyrrolo[2,1-α]isoquinolin-3-yl)-methanone] is 16.2 nM; for `COc1cc2c(cc1C=C(C)C)-c1c(-c3cccs3)cc(C(=O)N(C)C(C)(C)C)n1CC2` [Example 58b, 8-Methoxy-9-(2-methyl-propenyl)-1-thiophen-2-yl-5,6-dihydro-pyrrolo[2,1-α]isoquinoline-3-carboxylic acid tert-butyl-methyl-amide] it is 0.7 nM.
With `COc1cc2c(cc1OC(C)C)-c1c(-c3cccs3)c(C=O)c(C(=O)N(C)C(C)(C)C)n1CC2` [Example 39, 2-Formyl-9-isopropoxy-8-methoxy-1-thiophen-2-yl-5,6-dihydro-pyrrolo[2,1-α]isoquinoline-3-carboxylic acid tert-butyl-methyl-amide] the figure was 2.7 nM; with `COc1cc2c(cc1OC(C)C)-c1c(-c3cccs3)cc(C(=O)N3CCCN(S(=O)(=O)c4cccs4)CC3)n1CC2` [Example 3, (9-Isopropoxy-8-methoxy-1-thiophen-2-yl-5,6-dihydro-pyrrolo[2,1-α]isoquinolin-3-yl)-[4-(thiophene-2-sulfonyl)-[1,4]diazepan-1-yl]-methanone], 4.6 nM.
As to `COc1cc2c(cc1OC)-c1c(Br)cc(C(=O)N3CCCN(C(=O)C4CCC4)CC3)n1CC2` [Example 108c], the midpoint of the response, the EC50, lay at 100 nM.
With `COc1cc2c(cc1NS(C)(=O)=O)-c1c(-c3cccs3)cc(C(=O)N3CCCC3(C)C)n1CC2` [Example 100, N-[3-(2,2-Dimethyl-pyrrolidine-1-carbonyl)-8-methoxy-1-thiophen-2-yl-5,6-dihydro-pyrrolo[2,1-α]isoquinolin-9-yl]-methanesulfonamide] the figure was 1 nM; with `COc1cc2c(cc1OC(C)C)-c1c(-c3cccs3)cc(C(=O)C(C)N3CCOCC3)n1CC2` (stereo not drawn) [Example 48, 1-(9-Isopropoxy-8-methoxy-1-thiophen-2-yl-5,6-dihydro-pyrrolo[2,1-α]isoquinolin-3-yl)-2-morpholin-4-yl-propan-1-one], 89.4 nM; with `COCC(=O)Nc1cc2c(cc1OC)CCn1c(C(=O)N(C)C(C)(C)C)cc(-c3cccs3)c1-2` [Example 98, 8-Methoxy-9-(2-methoxy-acetylamino)-1-thiophen-2-yl-5,6-dihydro-pyrrolo[2,1-α]isoquinoline-3-carboxylic acid tert-butyl-methyl-amide], 1.4 nM.
As for `COc1cc2c(cc1N1CCN(C)CC1)-c1c(-c3cccs3)cc(C(=O)N(C)C(C)(C)C)n1CC2` [Example 54, 8-Methoxy-9-(4-methyl-piperazin-1-yl)-1-thiophen-2-yl-5,6-dihydro-pyrrolo[2,1-α]isoquinoline-3-carboxylic acid tert-butyl-methyl-amide], the EC50 is 455 nM.
